Data reported in PubChem BioAssay (NCI).
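Each compound was tested at five concentrations against cells in 96-well plates for 48 hours. GI50 = concentration required for 50% inhibition of growth. Definition used: TGI = concentration required for complete inhibition of growth.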

Assays:
Assay in all cases: NCI tumour cell line growth inhibition, 48 h
786-0 renal = tested on: 786-0 renal
A498 renal = tested on: A498 renal
A549 NSCLC = tested on: A549 NSCLC
ACHN renal = tested on: ACHN renal
BT-549 breast = tested on: BT-549 breast
CAKI-1 renal = tested on: CAKI-1 renal
CCRF-CEM leukemia = tested on: CCRF-CEM leukemia
COLO 205 colon = tested on: COLO 205 colon
DU-145 prostate = tested on: DU-145 prostate
EKVX NSCLC = tested on: EKVX NSCLC
HCT-116 colon = tested on: HCT-116 colon
HCT-15 colon = tested on: HCT-15 colon
HL-60(TB) leukemia = tested on: HL-60(TB) leukemia
HOP-62 NSCLC = tested on: HOP-62 NSCLC
HOP-92 NSCLC = tested on: HOP-92 NSCLC
HS 578T breast = tested on: HS 578T breast
HT29 colon = tested on: HT29 colon
IGROV1 ovarian = tested on: IGROV1 ovarian
K-562 leukemia = tested on: K-562 leukemia
KM12 colon = tested on: KM12 colon
LOX IMVI melanoma = tested on: LOX IMVI melanoma
M14 melanoma = tested on: M14 melanoma
MALME-3M melanoma = tested on: MALME-3M melanoma
MCF7 breast = tested on: MCF7 breast
MDA-MB-231 breast = tested on: MDA-MB-231 breast
MDA-MB-435 = tested on: MDA-MB-435
MOLT-4 leukemia = tested on: MOLT-4 leukemia
NCI-H226 lung = tested on: NCI-H226 lung
NCI-H23 lung = tested on: NCI-H23 lung
NCI-H460 lung = tested on: NCI-H460 lung
NCI-H522 lung = tested on: NCI-H522 lung
NCI/ADR-RES ovarian = tested on: NCI/ADR-RES ovarian
OVCAR-3 ovarian = tested on: OVCAR-3 ovarian
OVCAR-4 ovarian = tested on: OVCAR-4 ovarian
OVCAR-5 ovarian = tested on: OVCAR-5 ovarian
OVCAR-8 ovarian = tested on: OVCAR-8 ovarian
PC-3 prostate = tested on: PC-3 prostate
RPMI-8226 leukemia = tested on: RPMI-8226 leukemia
RXF 393 renal = tested on: RXF 393 renal
SF-268 CNS = tested on: SF-268 CNS
SF-295 CNS = tested on: SF-295 CNS
SF-539 CNS = tested on: SF-539 CNS
SK-MEL-2 melanoma = tested on: SK-MEL-2 melanoma
SK-MEL-28 melanoma = tested on: SK-MEL-28 melanoma
SK-MEL-5 melanoma = tested on: SK-MEL-5 melanoma
SK-OV-3 ovarian = tested on: SK-OV-3 ovarian
SN12C renal = tested on: SN12C renal
SNB-19 CNS = tested on: SNB-19 CNS
SNB-75 CNS = tested on: SNB-75 CNS
SR leukemia = tested on: SR leukemia
SW-620 colon = tested on: SW-620 colon
T-47D breast = tested on: T-47D breast
TK-10 renal = tested on: TK-10 renal
U251 CNS = tested on: U251 CNS
UACC-257 melanoma = tested on: UACC-257 melanoma
UACC-62 melanoma = tested on: UACC-62 melanoma
UO-31 renal = tested on: UO-31 renal
HCC-2998 colon = tested on: HCC-2998 colon

CCn1c(-c2c(Cl)cc(O)cc2Cl)cc2c(Cl)cc(O)cc21
TGI (786-0 renal): 24.8 µM
TGI (A498 renal): 30.1 µM
TGI (A549 NSCLC): 44.2 µM
TGI (ACHN renal): 16.9 µM
TGI (BT-549 breast): 15.5 µM
TGI (CAKI-1 renal): 30.5 µM
TGI (CCRF-CEM leukemia): > 100 µM
TGI (COLO 205 colon): 36.8 µM
TGI (DU-145 prostate): > 100 µM
TGI (EKVX NSCLC): 58.5 µM
TGI (HCT-116 colon): > 100 µM
TGI (HCT-15 colon): 12.8 µM
TGI (HL-60(TB) leukemia): 26.2 µM
TGI (HOP-62 NSCLC): 31.5 µM
TGI (HOP-92 NSCLC): 59.4 µM
TGI (HS 578T breast): > 100 µM
TGI (HT29 colon): 6.82 µM
TGI (IGROV1 ovarian): 12.9 µM
TGI (K-562 leukemia): > 100 µM
TGI (KM12 colon): 61 µM
TGI (LOX IMVI melanoma): 32.8 µM
TGI (M14 melanoma): 91.5 µM
TGI (MALME-3M melanoma): 39.3 µM
TGI (MCF7 breast): 25.2 µM
TGI (MDA-MB-231 breast): 31 µM
TGI (MDA-MB-435): 13 µM
TGI (MOLT-4 leukemia): > 100 µM
TGI (NCI-H226 lung): > 100 µM
TGI (NCI-H23 lung): 39 µM
TGI (NCI-H460 lung): 18.4 µM
TGI (NCI-H522 lung): 6.68 µM
TGI (NCI/ADR-RES ovarian): > 100000 nM
TGI (OVCAR-3 ovarian): 97 µM
TGI (OVCAR-4 ovarian): 21.7 µM
TGI (OVCAR-5 ovarian): 65 µM
TGI (OVCAR-8 ovarian): 18.7 µM
TGI (PC-3 prostate): > 100 µM
TGI (RPMI-8226 leukemia): 87.6 µM
TGI (RXF 393 renal): 8.03 µM
TGI (SF-268 CNS): 16.1 µM
TGI (SF-295 CNS): 19.8 µM
TGI (SF-539 CNS): 23.2 µM
TGI (SK-MEL-2 melanoma): 17.1 µM
TGI (SK-MEL-28 melanoma): 10.1 µM
TGI (SK-MEL-5 melanoma): 12.5 µM
TGI (SK-OV-3 ovarian): 37.1 µM
TGI (SN12C renal): > 100 µM
TGI (SNB-19 CNS): 28.3 µM
TGI (SNB-75 CNS): 20.9 µM
TGI (SR leukemia): > 100 µM
TGI (SW-620 colon): 41 µM
TGI (T-47D breast): 27.4 µM
TGI (TK-10 renal): 59.2 µM
TGI (U251 CNS): 17 µM
TGI (UACC-257 melanoma): 26 µM
TGI (UACC-62 melanoma): 32.8 µM
TGI (UO-31 renal): > 100 µM

CC(=Nc1ccccc1)C1=C(O)C(Cc2cccc(F)c2)NC1=O (stereo unspecified)
GI50 (786-0 renal): 85.7 nM
TGI (786-0 renal): > 100 µM
GI50 (A498 renal): 35.6 nM
TGI (A498 renal): 0.426 µM
GI50 (A549 NSCLC): 51.1 nM
TGI (A549 NSCLC): > 100 µM
GI50 (ACHN renal): 69.4 nM
TGI (ACHN renal): > 100 µM
GI50 (BT-549 breast): 173 nM
TGI (BT-549 breast): > 100 µM
GI50 (CAKI-1 renal): 49 nM
TGI (CAKI-1 renal): > 100 µM
GI50 (CCRF-CEM leukemia): 58.1 nM
TGI (CCRF-CEM leukemia): > 100 µM
GI50 (COLO 205 colon): 35 nM
TGI (COLO 205 colon): 0.141 µM
GI50 (DU-145 prostate): 86 nM
TGI (DU-145 prostate): 10.2 µM
GI50 (HCC-2998 colon): 144 nM
TGI (HCC-2998 colon): 3.1 µM
GI50 (HCT-116 colon): 47 nM
TGI (HCT-116 colon): > 39.4 µM
GI50 (HCT-15 colon): 44.4 nM
TGI (HCT-15 colon): > 100 µM
GI50 (HL-60(TB) leukemia): 33.4 nM
GI50 (HOP-62 NSCLC): 55.7 nM
TGI (HOP-62 NSCLC): > 100 µM
GI50 (HOP-92 NSCLC): 24.2 nM
TGI (HOP-92 NSCLC): > 21.1 µM
GI50 (HS 578T breast): 50.1 nM
TGI (HS 578T breast): > 100 µM
GI50 (HT29 colon): 37.2 nM
TGI (HT29 colon): 13.4 µM
GI50 (IGROV1 ovarian): 85.4 nM
TGI (IGROV1 ovarian): > 100 µM
GI50 (K-562 leukemia): 41.2 nM
TGI (K-562 leukemia): > 100 µM
GI50 (KM12 colon): 45.7 nM
TGI (KM12 colon): > 100 µM
GI50 (LOX IMVI melanoma): 66.7 nM
TGI (LOX IMVI melanoma): > 100 µM
GI50 (M14 melanoma): 48.7 nM
TGI (M14 melanoma): > 100 µM
GI50 (MALME-3M melanoma): 41.9 nM
TGI (MALME-3M melanoma): > 100 µM
GI50 (MCF7 breast): 35.4 nM
TGI (MCF7 breast): > 100 µM
GI50 (MDA-MB-231 breast): 178 nM
TGI (MDA-MB-231 breast): 1.93 µM
GI50 (MDA-MB-435): 18 nM
TGI (MDA-MB-435): 0.056 µM
GI50 (MOLT-4 leukemia): 158 nM
TGI (MOLT-4 leukemia): > 100 µM
GI50 (NCI-H226 lung): 5.25 µM
TGI (NCI-H226 lung): > 100 µM
GI50 (NCI-H23 lung): 101 nM
TGI (NCI-H23 lung): > 100 µM
GI50 (NCI-H460 lung): 40.3 nM
TGI (NCI-H460 lung): > 100 µM
GI50 (NCI-H522 lung): 28.6 nM
TGI (NCI-H522 lung): 0.182 µM
GI50 (NCI/ADR-RES ovarian): 34.8 nM
TGI (NCI/ADR-RES ovarian): 186 nM
GI50 (OVCAR-4 ovarian): 345 nM
TGI (OVCAR-4 ovarian): > 100 µM
GI50 (OVCAR-5 ovarian): 253 nM
TGI (OVCAR-5 ovarian): > 100 µM
GI50 (OVCAR-8 ovarian): 122 nM
TGI (OVCAR-8 ovarian): > 100 µM
GI50 (PC-3 prostate): 39.9 nM
TGI (PC-3 prostate): > 100 µM
GI50 (RPMI-8226 leukemia): 52.5 nM
TGI (RPMI-8226 leukemia): > 100 µM
GI50 (RXF 393 renal): 18.6 nM
TGI (RXF 393 renal): 0.0561 µM
GI50 (SF-268 CNS): 71 nM
TGI (SF-268 CNS): > 100 µM
GI50 (SF-295 CNS): 31.2 nM
TGI (SF-295 CNS): 0.184 µM
GI50 (SF-539 CNS): 37.4 nM
GI50 (SK-MEL-2 melanoma): 62.6 nM
TGI (SK-MEL-2 melanoma): > 100 µM
GI50 (SK-MEL-5 melanoma): 34.3 nM
TGI (SK-MEL-5 melanoma): 1.82 µM
GI50 (SK-OV-3 ovarian): 46.9 nM
TGI (SK-OV-3 ovarian): 1.33 µM
GI50 (SN12C renal): 129 nM
TGI (SN12C renal): > 100 µM
GI50 (SNB-19 CNS): 156 nM
TGI (SNB-19 CNS): > 100 µM
GI50 (SR leukemia): 23.9 nM
TGI (SR leukemia): > 72.8 µM
GI50 (SW-620 colon): 41.9 nM
TGI (SW-620 colon): > 100 µM
GI50 (T-47D breast): 42.5 nM
TGI (T-47D breast): > 100 µM
GI50 (TK-10 renal): 6.15 µM
TGI (TK-10 renal): > 100 µM
GI50 (U251 CNS): 70.2 nM
TGI (U251 CNS): > 100 µM
GI50 (UACC-62 melanoma): 54.6 nM
TGI (UACC-62 melanoma): > 100 µM
GI50 (UO-31 renal): 78.9 nM
TGI (UO-31 renal): > 100 µM
